Molecules are shown by their SMILES. Where two headings read alike, the source gives them in different places.

For one data set, the target named is HIV-1 IN (Human immunodeficiency virus type 1 group M subtype B, UniProt P12497). As to the kind of experiment: biochemical.
In a further data set the test system is HIVLAI. As to the kind of experiment: Anti-HIV assay, protection from HIV-induced cell death. The format is cell-based. The note with it: Human immunodeficiency virus 1, MT2, 72 h, read-out: ED50 (concentration that inhibits HIV-induced cell death by 50%). As for the experimental part: Anti-HIV assays were performed as described above. […] The compounds were then two-fold serially diluted in triplicate. To each 50 μl of diluted compound, 50 μl of HIVLAI was added and the virus-drug mixture was incubated for 1 hr at 37° C. […] Final multiplicity of infection (MOI) was 1-5. Cells were harvested to quantitate cytopathic effect using a neutral red dye assay as described.

For a further data set, the system named is MT-2 cells. The note with it: 48 hours. The text has this: The chemical structures of the compounds are illustrated in FIGS. 1-4. In FIG. 1a, the D- and meso-isomers of L-chicoric acid are identical in this illustrative format. […] The first compound in Table 1, L-chicoric acid, a previously described DCTA, is included for reference. LD5, the 5% lethal dose, is a measure of the toxicity of compound to living, cultured cells. It is the concentration at which cell growth is inhibited by 5%. […] Most simply understood, disintegration is a term used to refer to the reverse of integration.
Cell toxicity and anti-HIV assays were performed as reported above. […] Cells were incubated with drug for 48 hours at 37° C., then harvested for cell viability in a neutral red dye assay as described.

Another data set has as its system HIVNL4-3 clone 7-1. The format is cell-based, HIV-1. The note with it: for concentration of the drug in the combination with L-CCA giving Fa: NL4-3clone7-1, combined with L-CCA.
In the next data set the test system is HIVNL4-3 JF26/A7. Particulars: for concentration of the drug in the combination with L-CCA giving Fa: NL4-3cloneJF26/A7, combined with L-CCA. As for the experimental part:
(§1) For each of these HIV clones, the ED50 was determined for the anti-HIV compounds ZDV, DDC, DDI, the protease inhibitor (PI) Nelfinavir (provided by Agouron Pharmaceuticals, San Diego), and L-CCA.
(§2) Molecular clones of HIV included wild-type HIVNL4-3, HIVNL4-3 M184V, and HIVNL4-3 JF26/A7, All three clones were a generous gift from P. Krogstad (UCLA, Los Angeles, Calif.). Viruses were initially, transfected in adherent HeLa cells using Lipofectin®. After 48 hours, H9 cells were added. Following 24 hours of co-culture, non-adherent cells were removed and cultured. Cells were monitored by indirect immunofluorescence and RT release as described below until the culture was 100% infected by HIV-1. Supernatant fluids were collected and clarified of cells by low-speed centrifugation followed by filtration through 0.45 μm filters.
(§3) Anti-HIV activity of compounds was determined both alone and in combination using a cytopathicity based assay as described above. […] The fifty-percent effective dose (ED50) was calculated for triplicate infections. Mean ED50 (shown in FIG. 5) were calculated for each drug against each HIV variant from a minimum of three experiments performed in triplicate.
(§4) Experiments were designed at a fixed ratio of drugs; the ratio for each drug combination was determined based on the ED50 of each drug alone against each HIV variant. Combination indices were calculated on representative experiments performed in triplicate according to the following formula of Chou and Talalay: fa/fu=(D/Dm)^m
(§5) Where fa is the fraction affected by the dose, fu is the unaffected fraction, D is the dose of the drug, Dm is the median-effect dose determined to be the x-intercept of the median-effect plot, and m is the sigmoidicity of the dose-effect curve, determined by the slope of the median-effect plot. The median effect plot is based on the following equation: log(fa/fu)=^m log (D)−m log (Dm)

The test system of a further data set is HIVNL4-3 M184V. The class given is cell-based, HIV-1. The note with it: for concentration of the drug in the combination with L-CCA giving Fa: NL4-3cloneM184V, combined with L-CCA; for susceptibility of the clone to the drug alone: clone with methionine to valine mutation in RT. On the procedure: as §1, §2, §3, §4, §5
The next data set deals with HIV-1NL4-3clone1-D4. The class given is cell-based. The note with it: clones 7-1, 7-3 and 1-D4, FIG. 16a. On the procedure:
Cloning and sequencing of virus from the HIVNL4-3 passaged in the presence of 8 μM L-chicoric acid was undertaken to determine the molecular basis for resistance to L-chicoric acid and to isolate a resistant HIV clone.
This cloning was accomplished through site-directed mutagenesis introducing several silent mutations immediately upstream and downstream of the integrase gene. These mutations generated two unique restriction sites: an upstream SacII and a downstream XbaI (FIG. 15). Introduction of these mutations allowed the entire integrase gene with only minimal upstream and downstream nucleotides to be digested and “swapped” between drug-resistant and drug-sensitive clones.

A word on the IC50: it is the concentration that gives 50% inhibition. Read a low IC50 as higher potency. For `O=C(O)C(=Cc1ccc(O)c(O)c1)C(=Cc1ccc(O)c(O)c1)C(=O)O` [Compound 37, Di-3,4-dihydroxybenzylidene succinic acid], the IC50 against HIV-1 IN amounted to 2190 nM. The EC50 with HIVLAI stood at 8700 nM. In addition, the “LD5 (5% lethal dose, concentration at which cell growth is inhibited by 5%)” value in the data set with MT-2 cells came to 35 µM.

`O=C(C=Cc1ccc(O)c(O)c1)Nc1ccc(C(=O)O)cc1NC(=O)C=Cc1ccc(O)c(O)c1` [Compound 36, Bis-3,4-dicaffeoyldiamidobenzoic acid]: the IC50 against HIV-1 IN stood at 734 nM. The EC50 in the data set with HIVLAI stood at 4600 nM. Further, in the data set with MT-2 cells, the “LD5 (5% lethal dose, concentration at which cell growth is inhibited by 5%)” value worked out at 47 µM.

With `Nc1ccn([C@H]2CC[C@@H](CO)O2)c(=O)n1` [DDC, 2′,3′-dideoxycytidine], the “concentration of the drug in the combination with L-CCA giving Fa” value (“concentration of the drug” for short) with HIVNL4-3 clone 7-1 (Fa 0.2) worked out at 12.4 nM; with HIVNL4-3 clone 7-1 (Fa 0.4), 21.1 nM; in the data set on HIVNL4-3 clone 7-1 (Fa 0.6), 32.8 nM; in the data set on HIVNL4-3 clone 7-1 (Fa 0.8) it was 56.0 nM; in the data set on HIVNL4-3 clone 7-1 (Fa 0.9), 87.1 nM; in the data set on HIVNL4-3 JF26/A7 (Fa 0.2), 13.0 nM. Also, the “concentration of the drug” value in the data set with HIVNL4-3 JF26/A7 (Fa 0.4) came out at 23.8 nM; with HIVNL4-3 JF26/A7 (Fa 0.6), 39.2 nM; in the data set with HIVNL4-3 JF26/A7 (Fa 0.8), 71.8 nM; in the data set on HIVNL4-3 JF26/A7 (Fa 0.9), 118 nM; in the data set with HIVNL4-3 M184V (Fa 0.2) it was 21.6 nM; with HIVNL4-3 M184V (Fa 0.4) it was 43.2 nM. Further, the results for the “concentration of the drug” value with HIVNL4-3 M184V (Fa 0.6), in the data set with HIVNL4-3 M184V (Fa 0.8) and in the data set on HIVNL4-3 M184V (Fa 0.9) were 76.8 nM, 153.7 nM and 273 nM, respectively. Besides, the “susceptibility of the clone to the drug alone” value (“susceptibility of the clone” below) with HIVNL4-3 clone 7-1 (HIVNL4-3 clone 7-1) was “increased susceptibility”; in the data set with HIVNL4-3 M184V, “partial resistance”.

At HIV-1 IN, `O=C(C=Cc1ccc(O)c(O)c1)NCC(NC(=O)C=Cc1ccc(O)c(O)c1)C(=O)O` (centres unmarked) [Compound 35, 2-3-dicaffeoyldiamidopropionic acid] displayed an IC50 of 570 nM. Further, in the data set with HIVLAI, the EC50 was 70000 nM. Further, in the data set with MT-2 cells, the “LD5 (5% lethal dose, concentration at which cell growth is inhibited by 5%)” value was determined as 50 µM.

At HIV-1 IN, `O=C(/C=C/c1ccc(O)c(O)c1)OC[C@H](OC(=O)/C=C/c1ccc(O)c(O)c1)C(=O)O` [Compound 19, Dicaffeoyl-L-glyceric acid] had an IC50 of 520 nM. For the same compound, the EC50 in the data set with HIVLAI amounted to 2300 nM. The “LD5 (5% lethal dose, concentration at which cell growth is inhibited by 5%)” value with MT-2 cells stood at 145 µM.

As for `Cc1c(O)cccc1C(=O)N[C@@H](CSc1ccccc1)[C@H](O)CN1C[C@H]2CCCC[C@H]2C[C@H]1C(=O)NC(C)(C)C` [Nelfinavir], the “concentration of the drug” value in the data set on HIVNL4-3 clone 7-1 (Fa 0.2) is recorded as 2.9 nM; with HIVNL4-3 clone 7-1 (Fa 0.4), 4.9 nM; with HIVNL4-3 clone 7-1 (Fa 0.6) it was 7.6 nM; in the data set on HIVNL4-3 clone 7-1 (Fa 0.8), 13.1 nM; with HIVNL4-3 clone 7-1 (Fa 0.9), 20.3 nM; in the data set on HIVNL4-3 JF26/A7 (Fa 0.2), 4.6 nM. In addition, the “concentration of the drug” value amounted to 7.0 nM in the data set with HIVNL4-3 JF26/A7 (Fa 0.4); 10.0 nM in the data set on HIVNL4-3 JF26/A7 (Fa 0.6); 15.1 nM with HIVNL4-3 JF26/A7 (Fa 0.8); 21.3 nM in the data set on HIVNL4-3 JF26/A7 (Fa 0.9); 2.5 nM in the data set with HIVNL4-3 M184V (Fa 0.2); 4.7 nM in the data set with HIVNL4-3 M184V (Fa 0.4). Further, the “concentration of the drug” value was 7.9 nM in the data set with HIVNL4-3 M184V (Fa 0.6), 14.8 nM with HIVNL4-3 M184V (Fa 0.8) and 24.8 nM in the data set with HIVNL4-3 M184V (Fa 0.9).

In turn, `O=C(C=Cc1ccc(O)c(O)c1)NCCCCC(NC(=O)C=Cc1ccc(O)c(O)c1)C(=O)O` [Compound 41, 1,4-dicaffeoyl-L-lysine] gave an IC50 on HIV-1 IN of 2230 nM. The EC50 in the data set on HIVLAI turned out to be 3700 nM. Moreover, in the data set with MT-2 cells, the “LD5 (5% lethal dose, concentration at which cell growth is inhibited by 5%)” value was 29.2 µM.

As to `O=C(C=Cc1ccc(O)c(O)c1)NCC(OC(=O)C=Cc1ccc(O)c(O)c1)C(=O)O` [Compound 40, Bis-dicaffeoyl-L-isoserine], the IC50 on HIV-1 IN was 195 nM. Moreover, in the data set on HIVLAI, the EC50 was 3000 nM. Besides, the “LD5 (5% lethal dose, concentration at which cell growth is inhibited by 5%)” value in the data set on MT-2 cells was 175 µM.

Regarding `OC[C@@H]1CC[C@H](n2cnc3c(O)ncnc32)O1` [DDI, 2′,3′-dideoxyinosine], the “susceptibility of the clone” value in the data set on HIVNL4-3 M184V is reported as “partial resistance”.

Turning to `Cc1cn([C@H]2C[C@H](N=[N+]=[N-])[C@@H](CO)O2)c(=O)[nH]c1=O` [Zidovudine, zidovudine], the “concentration of the drug” value in the data set with HIVNL4-3 clone 7-1 (Fa 0.2) came out at 2.7 nM; with HIVNL4-3 clone 7-1 (Fa 0.4) it was 8.7 nM; in the data set on HIVNL4-3 clone 7-1 (Fa 0.6) it was 22.9 nM; in the data set with HIVNL4-3 clone 7-1 (Fa 0.8), 73.8 nM; with HIVNL4-3 clone 7-1 (Fa 0.9), 194 nM; in the data set with HIVNL4-3 JF26/A7 (Fa 0.2), 150.2 nM. The “concentration of the drug” value is reported as 259.8 nM in the data set with HIVNL4-3 JF26/A7 (Fa 0.4); 409 nM in the data set with HIVNL4-3 JF26/A7 (Fa 0.6); 707 nM with HIVNL4-3 JF26/A7 (Fa 0.8); 1112 nM with HIVNL4-3 JF26/A7 (Fa 0.9); 4.9 nM in the data set with HIVNL4-3 M184V (Fa 0.2); 10.2 nM in the data set on HIVNL4-3 M184V (Fa 0.4). Also, the “concentration of the drug” value in the data set on HIVNL4-3 M184V (Fa 0.6) was 18.9 nM; in the data set on HIVNL4-3 M184V (Fa 0.8) it was 39.6 nM; in the data set on HIVNL4-3 M184V (Fa 0.9), 73 nM. For the same compound, in the data set on HIVNL4-3 JF26/A7 (HIVNL4-3 JF26/A7), the “susceptibility of the clone” value is “highly resistant”. The “sensitivity of the clones to the drug compared with parental HIVNL4-3” value with HIV-1NL4-3clone1-D4 is recorded as “same sensitivity”.

The values above are taken from patent publication US20050049242A1 (priority 2000, published 2005).
